Reference: PubChem BioAssay (NCI)
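Five concentrations, 48 hours, 96-well plates. GI50 marks 50% less growth. Definition used: TGI = concentration required for complete inhibition of growth.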

Experiments:
Assay in all cases: NCI tumour cell line growth inhibition, 48 h
UACC-62 melanoma = system: UACC-62 melanoma
IGROV1 ovarian = system: IGROV1 ovarian
HT29 colon = system: HT29 colon
HCC-2998 colon = system: HCC-2998 colon
SW-620 colon = system: SW-620 colon
SF-295 CNS = system: SF-295 CNS
SNB-19 CNS = system: SNB-19 CNS
HOP-92 NSCLC = system: HOP-92 NSCLC
PC-3 prostate = system: PC-3 prostate
HS 578T breast = system: HS 578T breast

Structure (SMILES)	TGI (UACC-62 melanoma)	TGI (IGROV1 ovarian)	TGI (HT29 colon)	TGI (HCC-2998 colon)	TGI (SW-620 colon)	TGI (SF-295 CNS)	TGI (SNB-19 CNS)	TGI (HOP-92 NSCLC)	GI50 (PC-3 prostate)	TGI (PC-3 prostate)	GI50 (HS 578T breast)	TGI (HS 578T breast)	GI50 (UACC-62 melanoma)	GI50 (IGROV1 ovarian)	GI50 (HT29 colon)	GI50 (SW-620 colon)	GI50 (SF-295 CNS)	GI50 (SNB-19 CNS)	GI50 (HOP-92 NSCLC)	GI50 (HCC-2998 colon)
O=c1cc(-c2ccccc2)[nH]c2c(Cl)cccc12	67.3 µM	> 100 µM	> 100 µM	> 100 µM	> 100 µM	58.5 µM	> 100 µM	–	–	–	–	–	–	–	–	–	–	–	–	–
CC(C)(O)[C@@H]1CC[C@@]2(C)CCC[C@H](O)[C@H]2C1	> 100 µM	> 100 µM	> 100 µM	> 100 µM	> 100 µM	> 100 µM	> 100 µM	> 100 µM	–	–	–	–	–	–	–	–	–	–	–	–
Cc1ccc(C(=O)N2c3ccccc3N(C)n3cccc3C2CC(=O)O)cc1 (stereo not given)	> 100 µM	> 100 µM	> 100 µM	> 100 µM	> 100 µM	> 100 µM	> 100 µM	> 100 µM	–	–	–	–	–	–	–	–	–	–	–	–
COc1cc(C=O)c(-c2cc3c(cc2C2(C)OCCS2)OCO3)c(OC)c1OC (stereo not given)	61.4 µM	> 169 µM	20.7 µM	31.2 µM	39.6 µM	48 µM	168 µM	90.3 µM	–	–	–	–	–	–	–	–	–	–	–	–
CCCCCCCC(=O)OCC1OC(n2cc(F)c(=O)[nH]c2=O)C(NC(=O)OCc2ccccc2)C(O)C1O (stereo not given)	> 100 µM	> 100 µM	> 100 µM	52.2 µM	> 100 µM	> 100 µM	> 100 µM	65.2 µM	–	–	–	–	–	–	–	–	–	–	–	–
O=C1C2=C(CCCCC2)C2CCCCC12O (stereo not given)	> 100 µM	> 100 µM	> 100 µM	> 100 µM	> 100 µM	> 100 µM	> 100 µM	> 100 µM	–	–	–	–	–	–	–	–	–	–	–	–
CCOC(=O)c1cc2c(cn1)[nH]c1cccc(N)c12	> 100 µM	> 100 µM	> 100 µM	> 100 µM	> 100 µM	> 100 µM	> 100 µM	> 100 µM	–	–	–	–	–	–	–	–	–	–	–	–
O=C1C2CC=CCC2C(=O)C12CCc1ccccc12 (stereo not given)	> 100 µM	> 100 µM	> 100 µM	> 100 µM	> 100 µM	> 100 µM	–	> 100 µM	–	–	–	–	–	–	–	–	–	–	–	–
O=[P+](O)c1cc2ccccc2c2ccccc12	> 100 µM	> 100 µM	> 100 µM	> 100 µM	> 100 µM	> 100 µM	> 100 µM	–	–	–	–	–	–	–	–	–	–	–	–	–
CC1(C)CCC[C@]2(C)c3cc(O)ccc3CC[C@@H]12	25.8 µM	38.8 µM	43.7 µM	–	29 µM	44.6 µM	33.9 µM	–	15.8 µM	30.2 µM	15.6 µM	31.3 µM	13.1 µM	20.4 µM	23.2 µM	13.8 µM	20.6 µM	17 µM	–	–
COc1ccc2nc(NCN3C(=O)c4ccccc4C3=O)sc2c1	> 100 µM	> 100 µM	> 100 µM	–	> 100 µM	> 100 µM	> 100 µM	> 100 µM	–	> 100 µM	–	> 100 µM	–	–	–	–	–	–	–	–
CN(C(=O)C12C3(C(=O)C(C)(C)C)C4C5(C#N)C3C1(C(=O)C(C)(C)C)C5C42C(=O)C(C)(C)C)C(C)(C)C (stereo not given)	> 50 µM	> 50 µM	> 50 µM	> 50 µM	> 50 µM	> 50 µM	> 50 µM	> 50 µM	–	–	–	–	–	–	–	–	–	–	–	–
COc1ccc(-c2nnc(-c3c(C)n(C)n(-c4ccccc4)c3=O)o2)cc1	> 100 µM	> 100 µM	> 100 µM	> 100 µM	> 100 µM	> 100 µM	> 100 µM	> 100 µM	–	–	–	–	–	–	–	–	–	–	–	–
O=C1C(Cl)=C(Nc2cccc(O)c2)C(=O)N1Cc1ccc(Cl)cc1	4.79 µM	40 µM	–	–	24.8 µM	18.5 µM	23.5 µM	–	3.45 µM	86.9 µM	8.51 µM	> 100 µM	1.27 µM	3.93 µM	–	2.56 µM	2.68 µM	2.64 µM	–	–
Cc1ccc(S(=O)(=O)C2c3nc4ccccc4cc3-c3nc4ccccc4nc32)cc1 (stereo not given)	> 100 µM	> 100 µM	–	> 100 µM	> 100 µM	–	> 100 µM	> 100 µM	–	–	–	–	–	–	–	–	–	–	–	–
N#Cc1ccc(Nc2cnc3ccc(N)cc3n2)cc1	> 100 µM	–	> 100 µM	> 100 µM	> 100 µM	> 100 µM	> 100 µM	> 100 µM	–	–	–	–	–	–	–	–	–	–	–	–
O=C(O)c1ccc([S-])cc1.[Au+].c1ccc(CN2[CH-]N(Cc3ccccc3)C(c3ccccc3)=C2c2ccccc2)cc1	1.4 µM	2.15 µM	1.58 µM	1.88 µM	1.93 µM	1.09 µM	–	0.806 µM	0.308 µM	1.44 µM	0.459 µM	2.84 µM	0.319 µM	0.541 µM	0.434 µM	0.418 µM	0.242 µM	–	0.204 µM	0.536 µM
Cc1ccc(C(=O)/C(=C\c2ccc([N+](=O)[O-])cc2)S(=O)Cc2ccc(F)cc2)cc1 (stereo not given)	2.97 µM	3.05 µM	–	3.24 µM	3.26 µM	5.05 µM	3.33 µM	3.87 µM	1.52 µM	3.09 µM	2.87 µM	8.76 µM	1.53 µM	1.5 µM	–	1.56 µM	1.94 µM	1.75 µM	1.93 µM	1.77 µM
CCCCCCCCC(O)C#CC(N)=O (stereo not given)	19.9 µM	–	24.5 µM	22.4 µM	37.2 µM	> 100 µM	26.3 µM	24.3 µM	–	–	–	–	–	–	–	–	–	–	–	–
O=c1nc(NC(c2ccccc2)(c2ccccc2)c2ccccc2)ccn1CCO	–	> 100 µM	> 100 µM	> 100 µM	> 100 µM	> 100 µM	> 100 µM	> 100 µM	–	–	–	–	–	–	–	–	–	–	–	–
CCC(=O)C(C)C(=O)C(=O)C(=O)OC (stereo not given)	> 100 µM	> 100 µM	> 100 µM	> 100 µM	> 45.7 µM	> 100 µM	> 100 µM	> 100 µM	–	–	–	–	–	–	–	–	–	–	–	–
COc1ccc(C2=Nc3c/c(=C\c4c(O)[nH]c5ccc(Cl)cc45)ccc3=N2)cc1	–	5.28 µM	–	2.51 µM	3.28 µM	–	5.85 µM	–	1.56 µM	4 µM	1.73 µM	4.8 µM	–	2.16 µM	–	1.41 µM	–	1.84 µM	–	1.24 µM
Nc1nc(NC2C=C(CO)C(O)C2O)c([N+](=O)[O-])c(=O)[nH]1 (stereo not given)	> 100 µM	> 100 µM	> 100 µM	> 100 µM	> 100 µM	> 100 µM	> 100 µM	> 100 µM	–	–	–	–	–	–	–	–	–	–	–	–
